“And” between values parts separate entries of the source, which are not always exact repeats. Identical values can stand only once. Like-named read-outs stand apart in the source and are kept apart here. One block for each compound: values may come before it.
Legend:
MDA-MB-468 cells = test: In vitro anticancer assay against MDA-MB-468 cells; type: cell-based; settings: for inhibition at 0.5 µM: MDA-MB-468, 0.5 μM; for inhibition at 0.5 µM / inhibition at 50 µM / inhibition at 5 µM: read-out: % Inhibition at 0.5, 5, 50 μM; for inhibition at 50 µM: MDA-MB-468, 50 μM; for inhibition at 5 µM: MDA-MB-468, 5 μM
Experimental: The anticancer activities of the novel asymmetrical marinopyrroles described herein were evaluated against MDA-MB-468 cells (Table 1). IC50 values are reported in μM.

Bcl-XL = Bcl-XL (Homo sapiens, UniProt Q07817); settings: Tse et al. 2008; cited from earlier work
Mcl-1 = Mcl-1 (Homo sapiens, UniProt Q07820); settings: Tse et al. 2008; cited from earlier work
Bcl-2 = Bcl-2 (Homo sapiens, UniProt P10415); settings: Tse et al. 2008; cited from earlier work
[1] = mean of the determinations, read-out: Mean IC50
[2] = single determinations, read-out: IC50
[3] = Homo sapiens, MDA-MB-468, estimated from % inhibition at 0.5, 5, 50 μM, read-out: Est. IC50
[4] = Homo sapiens, MDA-MB-468, mean of the determinations, read-out: Mean IC50
[5] = Homo sapiens, MDA-MB-468, single determinations, read-out: IC50
[6] = estimated from % inhibition at 0.5, 5, 50 μM, read-out: Est. IC50

Sequence of Bcl-2 (P10415 whole entry, species assumed): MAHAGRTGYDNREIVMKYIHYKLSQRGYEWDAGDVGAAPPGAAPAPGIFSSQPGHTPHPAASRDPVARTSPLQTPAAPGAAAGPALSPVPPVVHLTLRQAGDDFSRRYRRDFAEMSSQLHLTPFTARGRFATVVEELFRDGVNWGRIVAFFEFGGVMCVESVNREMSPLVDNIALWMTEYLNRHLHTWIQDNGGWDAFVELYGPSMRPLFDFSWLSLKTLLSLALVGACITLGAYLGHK
Sequence of Mcl-1 (Q07820 whole entry, species assumed): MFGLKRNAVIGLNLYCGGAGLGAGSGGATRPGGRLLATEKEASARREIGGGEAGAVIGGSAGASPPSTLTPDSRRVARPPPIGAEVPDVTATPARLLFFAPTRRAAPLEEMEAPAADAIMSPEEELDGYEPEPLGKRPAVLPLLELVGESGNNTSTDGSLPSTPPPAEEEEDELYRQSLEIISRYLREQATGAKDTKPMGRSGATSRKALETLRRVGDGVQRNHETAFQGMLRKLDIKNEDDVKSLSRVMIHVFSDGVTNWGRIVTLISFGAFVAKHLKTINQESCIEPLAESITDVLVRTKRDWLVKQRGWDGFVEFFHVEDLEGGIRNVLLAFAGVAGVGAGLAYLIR
Sequence of Bcl-XL (Q07817 whole entry, species assumed): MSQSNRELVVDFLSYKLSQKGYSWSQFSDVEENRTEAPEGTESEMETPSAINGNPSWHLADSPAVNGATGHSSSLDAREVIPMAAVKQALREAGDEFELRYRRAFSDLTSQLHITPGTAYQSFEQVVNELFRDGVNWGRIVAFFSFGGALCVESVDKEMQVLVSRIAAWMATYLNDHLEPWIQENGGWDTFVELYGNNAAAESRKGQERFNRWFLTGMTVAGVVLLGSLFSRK

SMILES: O=C(c1ccccc1O)c1[nH]c(Cl)c(Cl)c1-n1c(C(=O)c2ccccc2O)cc(Cl)c1Cl (racemic) [Racemic Marinopyrrole A, reference compound]
IC50 (MDA-MB-468 cells; [1]): 2030 ± 180 nM | IC50 (MDA-MB-468 cells; [2]): 2190 nM and 1840 nM and 2070 nM

SMILES: O=C(c1ccccc1O)c1[nH]c(Cl)c(Cl)c1-n1c(C(=O)c2ccccc2O)cc(Cl)c1Cl [(+)-Marinopyrrole A, reference compound]
IC50 (MDA-MB-468 cells; [1]): 1880 nM | IC50 (MDA-MB-468 cells; [2]): 2140 nM and 1640 nM

SMILES: O=C(c1ccccc1O)c1[nH]c(Cl)c(Cl)c1-n1c(C(=O)c2ccccc2O)cc(Cl)c1Cl [(−)-Marinopyrrole A, reference compound]
IC50 (MDA-MB-468 cells; [1]): 3170 nM | IC50 (MDA-MB-468 cells; [2]): 3470 nM and 2870 nM

SMILES: CC1(C)CCC(c2ccc(Cl)cc2)=C(CN2CCN(c3ccc(C(=O)NS(=O)(=O)c4ccc(N[C@H](CCN5CCOCC5)CSc5ccccc5)c(S(=O)(=O)C(F)(F)F)c4)cc3)CC2)C1 [ABT-263]
concentration that inhibits Bcl-XL (Bcl-XL): subnanomolar concentrations | activity on Mcl-1 (Mcl-1): only weakly target Mcl-1 | concentration that inhibits Bcl-2 (Bcl-2): subnanomolar concentrations

SMILES: CN(C)CC[C@H](CSc1ccccc1)Nc1ccc(S(=O)(=O)NC(=O)c2ccc(N3CCN(Cc4ccccc4-c4ccc(Cl)cc4)CC3)cc2)cc1[N+](=O)[O-] [ABT-737]
concentration that inhibits Bcl-XL (Bcl-XL): subnanomolar concentrations | activity on Mcl-1 (Mcl-1): only weakly target Mcl-1 | concentration that inhibits Bcl-2 (Bcl-2): subnanomolar concentrations

IC50 (MDA-MB-468 cells; [3]): 9000 nM
SMILES: O=C(c1ccccc1O)c1[nH]c(Cl)c(Cl)c1-n1c(C(=O)c2cc(Cl)ccc2O)cc(Cl)c1Cl [Compound 1, (5-Chloro-2-hydroxyphenyl)(4,4′,5,5′-tetrachloro-2′-(2-hydroxybenzoyl)-1′H-1,3′-bipyrrol-2-yl)methanone]
inhibition at 0.5 µM (MDA-MB-468 cells; Homo sapiens): 1.6% | inhibition at 50 µM (MDA-MB-468 cells; Homo sapiens): 98.3%

SMILES: O=C(c1ccccc1O)c1[nH]c(Cl)c(Cl)c1-n1c(C(=O)c2ccc(Cl)cc2O)cc(Cl)c1Cl [Compound 2, (4-Chloro-2-hydroxyphenyl)(4,4′,5,5′-tetrachloro-2′-(2-hydroxybenzoyl)-1′H-1,3′-bipyrrol-2-yl)methanone]
IC50 (MDA-MB-468 cells; [4]): 1450 nM | IC50 (MDA-MB-468 cells; [5]): 1720 nM | IC50 (MDA-MB-468 cells; [2]): 1170 nM

SMILES: O=C(c1ccccc1O)c1[nH]c(Cl)c(Cl)c1-n1c(C(=O)c2cccc(Cl)c2O)cc(Cl)c1Cl [Compound 3, (3-Chloro-2-hydroxyphenyl)(4,4′,5,5′-tetrachloro-2′-(2-hydroxybenzoyl)-1′H-1,3′-bipyrrol-2-yl)methanone]
inhibition at 0.5 µM (MDA-MB-468 cells; Homo sapiens): 7% | inhibition at 5 µM (MDA-MB-468 cells; Homo sapiens): 83.4% | inhibition at 50 µM (MDA-MB-468 cells; Homo sapiens): 100% | IC50 (MDA-MB-468 cells; [3]): 1000 nM | IC50 (MDA-MB-468 cells; [4]): 2170 nM | IC50 (MDA-MB-468 cells; [5]): 1950 nM | IC50 (MDA-MB-468 cells; [2]): 2390 nM

IC50 (MDA-MB-468 cells; [4]): 13200 nM | IC50 (MDA-MB-468 cells; [5]): 14000 nM | IC50 (MDA-MB-468 cells; [2]): 12400 nM
SMILES: COc1ccccc1C(=O)c1[nH]c(Cl)c(Cl)c1-n1c(C(=O)c2ccc(Cl)cc2OC)cc(Cl)c1Cl [Compound 5, (4-Chloro-2-methoxyphenyl)(4,4′,5,5′-tetrachloro-2′-(2-methoxybenzoyl)-1′H-[1,3′-bipyrrole]-2-yl)methanone]

IC50 (MDA-MB-468 cells; [4]): 11000 nM | IC50 (MDA-MB-468 cells; [5]): 11700 nM | IC50 (MDA-MB-468 cells; [2]): 10200 nM
SMILES: COc1ccccc1C(=O)c1[nH]c(Cl)c(Cl)c1-n1c(C(=O)c2cc(F)ccc2OC)cc(Cl)c1Cl [Compound 7]

SMILES: O=C(c1ccccc1O)c1[nH]c(Cl)c(Cl)c1-n1c(C(=O)c2cc(F)ccc2O)cc(Cl)c1Cl [Compound 8]
IC50 (MDA-MB-468 cells; [4]): 2140 nM | IC50 (MDA-MB-468 cells; [5]): 2230 nM | IC50 (MDA-MB-468 cells; [2]): 2050 nM

SMILES: COc1cc(OC)c(C(=O)c2cc(Cl)c(Cl)n2-c2c(C(=O)c3ccccc3OC)[nH]c(Cl)c2Cl)cc1Cl [Compound 9]
IC50 (MDA-MB-468 cells; [5]): 20400 nM

IC50 (MDA-MB-468 cells; [4]): 1700 nM | IC50 (MDA-MB-468 cells; [5]): 1940 nM | IC50 (MDA-MB-468 cells; [2]): 1460 nM
SMILES: O=C(c1ccccc1O)c1[nH]c(Cl)c(Cl)c1-n1c(C(=O)c2cc3ccccc3c(Cl)c2O)cc(Cl)c1Cl [Compound 10]

IC50 (MDA-MB-468 cells; [5]): 10700 nM
SMILES: COc1ccccc1C(=O)c1[nH]c(Cl)c(Cl)c1-n1c(C(=O)c2cc(Cl)c3ccccc3c2O)cc(Cl)c1Cl [Compound 11]

SMILES: O=C(c1ccccc1O)c1[nH]c(Cl)c(Cl)c1-n1c(C(=O)c2cc(Cl)c3ccccc3c2O)cc(Cl)c1Cl [Compound 12]
IC50 (MDA-MB-468 cells; [4]): 1890 nM | IC50 (MDA-MB-468 cells; [5]): 1900 nM

IC50 (MDA-MB-468 cells; [3]): 25000 nM
SMILES: COc1ccccc1C(=O)c1[nH]c(Cl)c(Cl)c1-n1c(C(=O)c2cccc(Cl)c2O)cc(Cl)c1Cl [Compound 21]
inhibition at 0.5 µM (MDA-MB-468 cells; Homo sapiens): -0.4% | inhibition at 50 µM (MDA-MB-468 cells; Homo sapiens): 99.1%

IC50 (MDA-MB-468 cells; [3]): 28000 nM
SMILES: COc1ccccc1C(=O)c1[nH]c(Cl)c(Cl)c1-n1c(C(=O)c2cc(F)ccc2O)cc(Cl)c1Cl [Compound 25]
inhibition at 0.5 µM (MDA-MB-468 cells; Homo sapiens): 2.4% | inhibition at 50 µM (MDA-MB-468 cells; Homo sapiens): 95.7%

SMILES: O=C(c1ccccc1O)c1[nH]c(Cl)c(Cl)c1-n1c(C(=O)c2c([O-])cccc2F)cc(Cl)c1Cl.[Na+] [Compound 27]
% Inhibition at 0.5, 5, 50 μM (MDA-MB-468 cells; 0.5 μM): 3.9% | inhibition at 50 µM (MDA-MB-468 cells; Homo sapiens): 96.3% | IC50 (MDA-MB-468 cells; [6]): 25000 nM

SMILES: O=C(c1ccccc1O)c1[nH]c(Cl)c(Cl)c1-n1c(C(=O)c2ccc(F)cc2O)cc(Cl)c1Cl [Compound 30]
inhibition at 0.5 µM (MDA-MB-468 cells; Homo sapiens): 10.8% | inhibition at 5 µM (MDA-MB-468 cells; Homo sapiens): 78.6% | inhibition at 50 µM (MDA-MB-468 cells; Homo sapiens): 94.7% | IC50 (MDA-MB-468 cells; [3]): 1000 nM | IC50 (MDA-MB-468 cells; [4]): 1040 nM | IC50 (MDA-MB-468 cells; [5]): 940 nM | IC50 (MDA-MB-468 cells; [2]): 1140 nM

SMILES: O=C(c1ccccc1O)c1[nH]c(Cl)c(Cl)c1-n1c(C(=O)c2ccc(F)cc2[O-])cc(Cl)c1Cl.[Na+] [Compound 31]
% Inhibition at 0.5, 5, 50 μM (MDA-MB-468 cells; 0.5 μM): 5.6% | % Inhibition at 0.5, 5, 50 μM (MDA-MB-468 cells; 5 μM): 63.5% | % Inhibition at 0.5, 5, 50 μM (MDA-MB-468 cells; 50 μM): 99.4% | IC50 (MDA-MB-468 cells; [6]): 2000 nM | IC50 (MDA-MB-468 cells; [1]): 3150 nM | IC50 (MDA-MB-468 cells; [2]): 3970 nM and 2330 nM

SMILES: O=C(c1ccccc1O)c1[nH]c(Cl)c(Cl)c1-n1c(C(=O)c2c(O)cccc2F)cc(Cl)c1Cl [Compound 32]
% Inhibition at 0.5, 5, 50 μM (MDA-MB-468 cells; 0.5 μM): 0% | % Inhibition at 0.5, 5, 50 μM (MDA-MB-468 cells; 50 μM): 87.7% | IC50 (MDA-MB-468 cells; [6]): 12000 nM

SMILES: O=C(c1ccccc1O)c1[nH]c(Cl)c(Cl)c1-n1c(C(=O)c2cc(Br)ccc2O)cc(Cl)c1Cl [Compound 33]
inhibition at 0.5 µM (MDA-MB-468 cells; Homo sapiens): 10.8% | inhibition at 5 µM (MDA-MB-468 cells; Homo sapiens): 58.7% | inhibition at 50 µM (MDA-MB-468 cells; Homo sapiens): 99.3% | IC50 (MDA-MB-468 cells; [3]): 2000 nM | IC50 (MDA-MB-468 cells; [5]): 3870 nM

IC50 (MDA-MB-468 cells; [5]): 33500 nM
SMILES: COc1ccc(F)cc1C(=O)c1cc(Cl)c(Cl)n1-c1c(C(=O)O)[nH]c(Cl)c1Cl [Compound 34]

IC50 (MDA-MB-468 cells; [5]): 10500 nM
SMILES: COc1ccccc1C(=O)c1[nH]c(Cl)c(Cl)c1-n1c(C(=O)c2cccc3ccccc23)cc(Cl)c1Cl [Compound 35]

IC50 (MDA-MB-468 cells; [5]): 15700 nM
SMILES: CCOC(=O)c1[nH]c(Cl)c(Cl)c1-n1c(C(=O)c2ccccc2O)cc(Cl)c1Cl [Compound 37]

IC50 (MDA-MB-468 cells; [4]): 2090 nM | IC50 (MDA-MB-468 cells; [5]): 2730 nM | IC50 (MDA-MB-468 cells; [2]): 1440 nM
SMILES: CCOC(=O)c1cc(Cl)c(Cl)n1-c1c(C(=O)c2ccccc2O)[nH]c(Cl)c1Cl [Compound 38]

IC50 (MDA-MB-468 cells; [5]): 18300 nM
SMILES: COc1ccc(C(=O)c2[nH]c(Cl)c(Cl)c2-n2c(C(=O)c3ccc(OC)cc3)cc(Cl)c2Cl)cc1 [Compound 39]

— patent US9340501B2, “Marinopyrrole derivatives as anticancer agents” (H. LEE MOFFITT CANCER CENTER AND RESEARCH INSTITUTE, INC., priority 2012, dated 2016)
